The values below come from US7527975B2, “Determination of high lipophilicity values” (Hoffmann-La Roche Inc., priority 2005, dated 2009).

The nature of data set [1]: DIFI-log D: octanol-impregnated PVDF membrane (DIFI-tubes) / buffer distribution, UV readout. Particulars: for logD at 2 h: pH 7.4.
Protocol: All compounds of the validation set were dissolved in dimethylsulfoxide at a concentration of 10 mM (DMSO-stock).
The experiment started with the accurate coating of 0,45 μm hydrophobic PVDF membranes (Immobilon-P PVDF (Millipore) and PVDF-Plus (Whatman, Headquater: 27 Great West Road, Brentford, Middlesex, TW8 9BW, UK), which were fixed on the bottom of the DI FI-tub es.
Each membrane is impregnated with exactly 1 μl octanol and 1μl DMSO-stock.
After a short incubation of 10 min the tubes with the coated membranes were connected to a 96-deepwell plate which had been prefilled with exactly 1600 μl of the selected buffer solution (50 mM TAPSO (FLUKA, BioChemika, ArtNo.93357), pH 7.4).
The plate was then sealed and shaken for two hours. During this time the substance was distributed between the membrane, the octanol and the buffer solution accordingly.
After the distribution equilibrium was reached (after 2 h) the tubes were carefully disassembled from the top of the deepwell plate in order to analyze the octanol phase which still stucks to the membrane.
Therefore, the remaining compound in the octanol phase was washed out with additional octanol as eluent. The concentration of the substance in the eluent was then determined by UV spectroscopy at absorption wavelengths between 250 and 450 nm.
In order to know the exact sample concentration before incubation with buffer a reference plate was generated under the same conditions as the described sample plate above. The reference plate was directly treated with the eluent and the resulted reference concentration in the octanol phase was measured by UV spectroscopy.
The lipophilicity value log D may be calculated from the analyzed sample concentration after incubation with buffer (Co) and the reference concentration before distribution (Cref).
Due to the fact, that all UV measurements were carried out under the same conditions, the concentration term were replaced by UV-absorption values (Abs) at the same wavelength.
In this equation, Vw is the volume of the aqueous phase was divided by the volume of the octanol phase Vo.
For each compounds three determinations were performed according to the described method above. The preparation of the reference and sample plate was performed manually.
The conditions of data set [2]: known log D values from literature; sources a) MEDChem01, MEDChem03, b) calculated from logP and pKa, c) Winiwarter et al. 1998; cited from earlier work.

The structures appear in SMILES notation.

With `C[C@@H]1C[C@H]2[C@@H]3CCC4=CC(=O)C=C[C@]4(C)[C@@]3(F)[C@@H](O)C[C@]2(C)[C@@]1(O)C(=O)CO` [Dexamethasone], the “DIFI-log D” value in data set [1] (1 μl octanol on 0,45 μm PVDF membrane / 1600 μl 50 mM TAPSO pH 7.4, shaken 2 h, UV 250-450 nm, three determinations) came out at 1.83.

In general, logD refers to lipophilicity at a set pH, counting ionised and neutral species. On to `COc1ccc(CCN2CCC(Nc3nc4ccccc4n3Cc3ccc(F)cc3)CC2)cc1` [Astemizole], for which the logD at 2 h in data set [1] worked out at 4.12. In addition, in data set [2], the “Lit. log D” value is given as 4.10.

For `C[C@]12CC[C@H]3[C@@H](CCC4=CC(=O)CC[C@@]43C)[C@@H]1CC[C@@H]2O` [Testosterone], the pH-dependent lipophilicity (logD) at 2 h in data set [1] was determined as 3.33.

Turning to `Clc1ccccc1C(c1ccccc1)(c1ccccc1)n1ccnc1` [Clotrimazole], in data set [1], the logD at 2 h came out at 4.91. Also, the “Lit. log D” value in data set [2] is on record as 4.99.

For the compound `COc1ccc([C@@H]2Sc3ccccc3N(CCN(C)C)C(=O)[C@@H]2OC(C)=O)cc1` [Diltiazem], in data set [1], the pH-dependent lipophilicity (logD) at 2 h was 2.33. Further, the “Lit. log D” value in data set [2] was 2.32.

`CCOC(=O)C1=C(C)NC(C)=C(C(=O)OC)C1c1cccc(Cl)c1Cl` (centres unmarked) [Felodipine]: the logD at 2 h in data set [1] is 4.84.

`COCCOC(=O)C1=C(C)NC(C)=C(C(=O)OC(C)C)C1c1cccc([N+](=O)[O-])c1` (centres unmarked) [Nimodipine] registered a log distribution coefficient (logD) at 2 h in data set [1] of 3.61. Moreover, the “Lit. log D” value in data set [2] is reported as 3.73.

Turning to `Clc1ccc(C(c2ccccc2Cl)C(Cl)Cl)cc1` (centres unmarked) [Mitotane], the pH-dependent lipophilicity (logD) at 2 h in data set [1] was 4.78. Further, the “Lit. log D” value in data set [2] is on record as 4.87.

`COc1ccccc1OCCNCC(O)COc1cccc2[nH]c3ccccc3c12` (centres unmarked) [Carvedilol] came in with a log distribution coefficient (logD) at 2 h in data set [1] of 3.38. The “Lit. log D” value in data set [2] is given as 3.37.

Take `CN(C)CC/C=C1/c2ccccc2Sc2ccc(Cl)cc21` [Chlorprothixene]: in data set [1], the logD at 2 h was found to be 4.24. Further, the “Lit. log D” value in data set [2] is 4.19.
